Source: patent publication US6900239B2, “Tumor chemopotentiation using isocoumarin derivatives” (ILWZ ILEX Products, Inc., priority 2000, dated 2005)

Tests used:
colon 26 adenocarcinoma = assay: Combination with cyclophosphamide, survival; type: in vivo, BALB/c mice
Protocol: To determine the effect on tumor growth of NM-3 treatment combined with simultaneous cyclophosphamide treatment, colon 26 adenocarcinoma cells (5×10^4 cells per mouse) were subcutaneously transplanted into BALB/c mice (female, 7 weeks old) in the inguinal area. NM-3 was continuously orally administered from day 1 to day 72 after the transplantation except on day 14 when cyclophosphamide was dosed.

IMC carcinoma = assay: Combination with cyclophosphamide, tumor weight; type: in vivo, CDF1 mice; details: for Solid Weight mg ± S.D.: day 42
Protocol: To determine the effect on IMC carcinoma growth of NM-3 treatment combined with simultaneous cyclophosphamide treatment, IMC carcinoma cells (1×10^6 cells per mouse) were subcutaneously transplanted into CDF1 mice (female, 10 weeks old) in the inguinal area. NM-3 which was dissolved using 5% DMSO+Tween80, was continuously orally administered from day 1 to day 41 after transplantation except on day 14, when cyclophosphamide (300 mg/kg) was injected intravenously.

[1] = test system: Human umbilical vein endothelial cells (HUVEC); assay: HUVEC colony formation with a constant amount of gamma radiation; type: cell-based
Protocol: Human umbilical vein endothelial cells (HUVEC) were exposed to a constant amount of gamma radiation in the presence or absence of various concentrations of NM-3 in the culture medium. The numbers of HUVEC colonies that formed following the different treatments were recorded and normalized to the number of colonies formed under control (no NM-3) conditions and the results are shown in FIG. 1. […] For comparison, HUVEC cells were treated with either angiostatin or endostatin, two additional anti-angiogenic proteins.

[2] = test system: Human umbilical vein endothelial cells (HUVEC); assay: HUVEC colony survival with increasing doses of X-rays; type: cell-based; details: highest X-ray dose
Protocol: In another study of HUVEC radiation sensitivity, cells were treated with NM-3 (100 ng/ml) 1 hr prior to exposure of the cells to increasing doses of gamma irradiation (X-rays). The numbers of HUVEC colonies that formed following the different treatments were recorded and normalized to the number of colonies formed under control conditions (see FIG. 2). Increasing doses of X-rays in the absence of NM-3 decreased HUvEC colony survival to a minimal value of 10% survival at the highest dose tested. In the presence of NM-3, HUVEC colony survival decreased to 0.01% of the initial living cells at the highest X-ray dose.

LLC tumor = assay: LLC tumors, second experiment, complete cures; type: in vivo; details: NM-3 25 μg/kg daily over the first four days + 20 Gy X-irradiation on days 2 and 4
Protocol: In a second similar experiment, X-ray treatment and X-ray treatment combined with NM-3 treatment were again compared for their relative abilities to inhibit LLC tumor growth. However, the treatment period was extended to determine whether either treatment regimen was able to initiate complete tumor cures. Animals were injected with […] initially and starting tumor volumes were approximately 500 mm^3. Tumors were irradiated on days 2 and 4 with 20 Gy X-irradiation. NM-3 was administered at 25 μg/kg daily over the first four days. The tumors of both groups increased slightly in size following initiation of treatment and then began to decrease after several days. Tumors in the X-ray only group began to increase steadily in size after the 10th day of continuous treatment. In contrast, tumors in the NM-3+X-ray group continued to decrease in size following the initial growth phase. Ultimately, 9 of 10 animals receiving NM-3+X-ray treatment experienced a complete cure while only 3 of 10 animals were cured by the X-ray treatment alone.

[3] = test system: MDAMB-435 human breast tumor xenografts; assay: MDAMB-435 orthotopic model, NM-3 with paclitaxel, second study (100 mm^3) and delivery routes; type: in vivo, female NCRNU nude mice
Protocol: In order to determine the effect of the combination of NM-3 with the cytotoxic drug, paclitaxel on human breast tumor xenografts, female NCRNU nude mice were implanted with MDAMB-435 cells into the subaxillary mammary fat pad. NM-3 was administered via intraperitoneal (i.p.) injection daily at doses ranging from 10-100 mg/kg; paclitaxel was administered via i.p. injection every 7 days, starting on day 0, at 10 mg/kg.
In a second study, treatment was initiated when tumor volumes reached 100 mm^3. Paclitaxel was administered at the fixed dose of 12.5 mg/kg, q7d and NM-3 was dosed at 10 and 100 mg/kg, i.p. daily for 28 days.
A comparison was also made between different delivery routes of NM-3 in the combination studies. NM-3 given i.p. daily, bid, and continuously using Alzet mini osmotic pumps in combination with paclitaxel was evaluated for effectiveness in reducing tumor growth.

[4] = test system: MM1.S human multiple myeloma cells; assay: Apoptosis by annexin V-FITC and PI staining; type: cell-based
Protocol: Apoptosis was determined by staining cells with annexin V-FITC and propidium iodide (PI). Cells were treated with DEX in the presence or absence of NM-3. NM-3 was added 2 hours before the addition of DEX. After 24 hours of DEX exposure, cells were washed twice with cold PBS, resuspended in binding buffer (10 mM HEPES/NaOH (pH 7.4), 140 mM NaCl, 2.5 mM CaCl2), and then stained with annexin V-FITC (Clontech Laboratories) and PI (Boehringer-Manheim). Apoptosis was analyzed by using a flow cytometer (EPICS XL-MCL, Coulter Corp). The cultured cells were also subjected to cell cycle analysis. Briefly, cells were washed twice with PBS and fixed with 70% ethanol. Cells were then washed with 0.5 ml PBS and 1.0 ml phosphate-citric acid buffer (0.2 M Na2HPO4 and 0.1 M citric acid (pH 7.8)), treated with 200 μg/ml RNase for 15 min at 37° C., and stained with 50 μg/ml PI for 30 min at room temperature in the dark. Cells were filtered through 35-μm diameter mesh to remove clumps. Nuclear staining was analyzed by a flow cytometer. Cells with fractional DNA content located on DNA frequency histograms to the left of the G1 peak (sub-G1 cells) were identified as apoptotic cells.

[5] = NM-3 1 mg/kg p.o. days 1-13, 15-72 alone
[6] = NM-3 5 mg/kg p.o. days 1-13, 15-72 alone
[7] = NM-3 1 mg/kg p.o. days 1-13, 15-41 alone
[8] = NM-3 5 mg/kg p.o. days 1-13, 15-41 alone

SMILES: COc1cc(O)c2c(=O)oc(C(C)C(=O)O)cc2c1 (centres unmarked) [NM-3, 2-(8-hydroxy-6-methoxy-1-oxo-1H-2-benzopyran-3-yl) propionic acid]
- Mean Survival Days (days ± S.D.) (colon 26 adenocarcinoma; [5]): 33.9 ± 13.6 days
- T/C (%) (colon 26 adenocarcinoma; [5]): 102.7%
- Mean Survival Days (days ± S.D.) (colon 26 adenocarcinoma; [6]): 23.5 ± 3.7 days
- T/C (%) (colon 26 adenocarcinoma; [6]): 71.2%
- Survival times versus control (colon 26 adenocarcinoma; NM-3 alone, 1 or 5 mg/kg): did not increase survival times
- Inhibition (%) (IMC carcinoma; [7]): 10.2%
- Solid Weight mg ± S.D. (IMC carcinoma; [7]): 11,093.0 ± 2040.6 mg
- Inhibition (%) (IMC carcinoma; [8]): 12.6%
- Solid Weight mg ± S.D. (IMC carcinoma; [8]): 10792.4 ± 2979.7 mg
- Tumor weight versus control (IMC carcinoma; NM-3 alone): did not significantly reduce tumor weight
- ED50, decrease of HUVEC colony formation [1]: approximately 1 μg/ml
- HUVEC colony survival ([2]; NM-3 100 ng/ml 1 hr prior to irradiation): 0.01%
- Increase of sensitivity to X-ray induced lethality ([2]; NM-3 100 ng/ml): approximately 1000 fold
- Animals with complete cure (LLC tumor): 9 of 10
- % Tumor Growth Inhibition ([3]; NM-3 100 mg/kg I.P. daily alone): 26.67%
- Final Tumor Ratio (V/Vo) +/− SEM ([3]; NM-3 100 mg/kg I.P. daily alone, 28 days): 4.70 ± 0.56 V/Vo
- Mice with Complete Shrinkage ([3]; NM-3 100 mg/kg I.P. daily alone, n 9): 0
- Tumor growth inhibition ([3]; NM-3 alone, daily dose of 10 mg/kg): no significant tumor growth inhibition
- Population of cells positive for annexin V and PI (apoptotic cells) ([4]; NM-3 alone, 50-200 μg/ml): did not change the population of cells positive for annexin V and PI
- DEX-induced increase of apoptotic cells ([4]; pretreatment with NM-3, DEX 1 μM, 24 hours): further enhanced
